Experimental data reported in ChEMBL document CHEMBL1201862, “PubChem BioAssay data set” (2004).
Active and inactive are the calls of the source.

What was measured:
[1] = cytotoxicity in HEK-293T cells, dose response, cytotoxicity control for TCR NF-kB inhibitor project, luminescence, T-cell screen hits (AID 489026); type: functional, cell-based;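 further: cells exposed to compound about 14 hours before the viability readout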
[2] = microbe, parasite or virus in culture; type: functional; settings: Mycobacterium tuberculosis
[3] = target: Voltage-dependent T-type calcium channel subunit alpha-1H (Homo sapiens, UniProt O95180); type: functional;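 further: channel activity triggered by adding a high calcium stimulation buffer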
Sequence of Voltage-dependent T-type calcium channel subunit alpha-1H (O95180 whole entry): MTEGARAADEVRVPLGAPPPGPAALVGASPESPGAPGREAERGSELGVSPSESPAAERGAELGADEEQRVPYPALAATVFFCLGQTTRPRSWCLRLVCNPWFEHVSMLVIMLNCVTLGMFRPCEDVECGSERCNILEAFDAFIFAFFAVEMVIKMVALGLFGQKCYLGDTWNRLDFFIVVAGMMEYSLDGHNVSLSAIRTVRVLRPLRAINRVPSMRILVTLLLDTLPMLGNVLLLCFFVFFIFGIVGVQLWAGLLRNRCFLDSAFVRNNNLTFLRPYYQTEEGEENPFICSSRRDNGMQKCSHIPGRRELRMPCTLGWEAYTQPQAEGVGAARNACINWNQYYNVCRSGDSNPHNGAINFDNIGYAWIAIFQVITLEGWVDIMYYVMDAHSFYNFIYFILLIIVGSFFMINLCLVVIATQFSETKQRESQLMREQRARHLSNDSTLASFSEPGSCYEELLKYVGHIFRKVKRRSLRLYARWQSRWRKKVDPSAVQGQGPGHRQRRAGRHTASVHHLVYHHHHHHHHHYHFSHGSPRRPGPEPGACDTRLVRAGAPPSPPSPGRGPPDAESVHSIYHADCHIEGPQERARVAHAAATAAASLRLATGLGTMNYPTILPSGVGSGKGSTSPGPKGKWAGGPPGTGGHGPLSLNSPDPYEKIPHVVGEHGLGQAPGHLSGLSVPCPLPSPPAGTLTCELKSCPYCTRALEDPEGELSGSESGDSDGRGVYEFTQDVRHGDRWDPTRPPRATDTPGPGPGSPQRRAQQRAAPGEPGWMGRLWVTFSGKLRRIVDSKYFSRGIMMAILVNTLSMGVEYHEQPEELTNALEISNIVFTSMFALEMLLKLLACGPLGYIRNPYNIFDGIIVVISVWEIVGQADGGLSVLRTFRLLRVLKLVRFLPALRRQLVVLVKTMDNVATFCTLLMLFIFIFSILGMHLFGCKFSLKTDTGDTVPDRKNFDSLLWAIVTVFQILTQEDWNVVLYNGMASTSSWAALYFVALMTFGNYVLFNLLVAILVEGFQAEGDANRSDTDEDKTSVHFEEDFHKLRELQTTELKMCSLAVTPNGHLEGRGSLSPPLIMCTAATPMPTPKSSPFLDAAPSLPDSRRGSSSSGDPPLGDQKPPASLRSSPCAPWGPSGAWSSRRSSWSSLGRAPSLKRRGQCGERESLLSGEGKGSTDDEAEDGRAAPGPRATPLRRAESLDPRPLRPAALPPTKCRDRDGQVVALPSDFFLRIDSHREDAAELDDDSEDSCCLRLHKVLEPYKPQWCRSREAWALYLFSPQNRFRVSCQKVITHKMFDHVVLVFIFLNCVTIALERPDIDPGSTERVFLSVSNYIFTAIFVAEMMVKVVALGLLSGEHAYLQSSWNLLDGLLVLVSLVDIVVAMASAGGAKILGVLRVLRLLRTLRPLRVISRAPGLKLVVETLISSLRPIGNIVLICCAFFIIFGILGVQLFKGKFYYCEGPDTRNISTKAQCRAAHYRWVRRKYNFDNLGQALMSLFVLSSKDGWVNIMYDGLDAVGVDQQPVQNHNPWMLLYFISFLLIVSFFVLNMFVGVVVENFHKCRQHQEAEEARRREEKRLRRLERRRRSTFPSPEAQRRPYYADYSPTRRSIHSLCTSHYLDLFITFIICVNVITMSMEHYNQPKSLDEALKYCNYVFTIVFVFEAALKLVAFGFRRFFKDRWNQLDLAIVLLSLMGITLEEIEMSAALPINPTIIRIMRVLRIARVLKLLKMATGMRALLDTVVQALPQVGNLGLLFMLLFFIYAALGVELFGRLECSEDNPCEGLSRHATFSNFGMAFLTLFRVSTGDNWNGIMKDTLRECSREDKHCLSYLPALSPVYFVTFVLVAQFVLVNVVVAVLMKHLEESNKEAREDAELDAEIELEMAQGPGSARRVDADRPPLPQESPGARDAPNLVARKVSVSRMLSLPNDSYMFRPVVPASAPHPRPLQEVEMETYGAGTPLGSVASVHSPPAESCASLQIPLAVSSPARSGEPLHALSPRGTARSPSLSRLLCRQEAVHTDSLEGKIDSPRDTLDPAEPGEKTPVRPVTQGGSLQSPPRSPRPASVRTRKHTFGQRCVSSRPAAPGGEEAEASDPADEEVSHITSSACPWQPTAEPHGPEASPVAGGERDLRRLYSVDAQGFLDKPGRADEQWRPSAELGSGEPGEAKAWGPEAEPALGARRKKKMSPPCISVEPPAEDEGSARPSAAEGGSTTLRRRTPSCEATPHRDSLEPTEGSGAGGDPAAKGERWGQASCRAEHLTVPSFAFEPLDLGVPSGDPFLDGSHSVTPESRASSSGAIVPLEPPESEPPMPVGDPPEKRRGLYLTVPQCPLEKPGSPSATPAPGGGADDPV

Protein skinhead-1 = target: T1, Protein skinhead-1 (Caenorhabditis elegans, UniProt P34707); type: functional
T1 sequence (P34707 whole entry): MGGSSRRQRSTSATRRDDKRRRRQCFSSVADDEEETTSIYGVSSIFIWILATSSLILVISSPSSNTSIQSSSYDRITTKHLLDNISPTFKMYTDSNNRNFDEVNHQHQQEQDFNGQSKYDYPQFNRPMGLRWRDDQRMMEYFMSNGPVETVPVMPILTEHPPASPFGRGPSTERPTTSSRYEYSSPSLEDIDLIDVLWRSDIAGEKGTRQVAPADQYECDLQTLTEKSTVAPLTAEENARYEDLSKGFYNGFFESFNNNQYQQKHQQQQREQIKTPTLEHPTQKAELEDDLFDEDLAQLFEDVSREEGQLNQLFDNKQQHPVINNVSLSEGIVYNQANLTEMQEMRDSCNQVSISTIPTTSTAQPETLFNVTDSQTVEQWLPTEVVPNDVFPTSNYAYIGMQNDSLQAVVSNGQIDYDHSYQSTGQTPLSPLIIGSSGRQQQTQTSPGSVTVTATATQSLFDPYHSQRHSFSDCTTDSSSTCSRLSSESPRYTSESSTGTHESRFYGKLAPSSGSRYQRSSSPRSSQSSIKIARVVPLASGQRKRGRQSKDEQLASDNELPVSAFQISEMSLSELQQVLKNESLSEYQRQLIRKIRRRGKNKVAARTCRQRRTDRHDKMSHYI

H9c2 = assay: cells; type: functional, cell-based; settings: Rattus norvegicus, H9c2, Myocardium;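 further: confirmatory concentration-response retest of ultra-high-throughput screening hits for modulation of myocardial damage; cell death induced by hydrogen peroxide oxidative stress; compound pretreatment for 60 min then peroxide exposure for 2 h; potency is for protecting the cells against peroxide damage rather than for killing them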
[4] = Luminescence Cell-Based Dose Confirmation HTS to Identify Activators of 5'UTR Stem-Loop Driven Alpha-Synuclein mRNA Translation in H4 Neuroglioblastoma Cells. [Related pubchem assays: 1829 (Project Summary), 1814 (Primary HTS)]; type: functional
[5] = Luminescence Cell-Based Dose Response HTS to Identify Activators of Luciferase Translation or Activity in H4 […] Cells. [Related pubchem assays: 1829 (Project Summary), 1814 (Primary HTS)]; type: functional
H4 = assay: Luminescence Cell-Based Dose Response HTS to Identify Activators of 5'UTR Stem-Loop Driven Prion Protein mRNA Translation in H4 Neuroglioblastoma Cells. [Related pubchem assays: 1829 (Project Summary), 1814 (Primary HTS)]; type: functional; settings: Homo sapiens
Nonstructural protein 1 = Nonstructural protein 1 (Influenza A virus, UniProt Q194T2); type: functional, Influenza A virus (A/California/07/2009(H1N1))
Sequence of Nonstructural protein 1 (Q194T2 whole entry): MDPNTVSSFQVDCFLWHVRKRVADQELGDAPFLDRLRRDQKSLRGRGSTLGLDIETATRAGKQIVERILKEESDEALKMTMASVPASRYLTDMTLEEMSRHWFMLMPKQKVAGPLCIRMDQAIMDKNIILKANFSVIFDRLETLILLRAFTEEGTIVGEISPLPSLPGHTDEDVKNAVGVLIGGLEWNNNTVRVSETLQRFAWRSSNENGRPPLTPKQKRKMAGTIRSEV

Cytochrome P450 2D6 = Cytochrome P450 2D6 (Homo sapiens, UniProt P10635);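 further: CYP2D6 member of a cytochrome P450 panel assay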
Sequence of Cytochrome P450 2D6 (P10635 whole entry): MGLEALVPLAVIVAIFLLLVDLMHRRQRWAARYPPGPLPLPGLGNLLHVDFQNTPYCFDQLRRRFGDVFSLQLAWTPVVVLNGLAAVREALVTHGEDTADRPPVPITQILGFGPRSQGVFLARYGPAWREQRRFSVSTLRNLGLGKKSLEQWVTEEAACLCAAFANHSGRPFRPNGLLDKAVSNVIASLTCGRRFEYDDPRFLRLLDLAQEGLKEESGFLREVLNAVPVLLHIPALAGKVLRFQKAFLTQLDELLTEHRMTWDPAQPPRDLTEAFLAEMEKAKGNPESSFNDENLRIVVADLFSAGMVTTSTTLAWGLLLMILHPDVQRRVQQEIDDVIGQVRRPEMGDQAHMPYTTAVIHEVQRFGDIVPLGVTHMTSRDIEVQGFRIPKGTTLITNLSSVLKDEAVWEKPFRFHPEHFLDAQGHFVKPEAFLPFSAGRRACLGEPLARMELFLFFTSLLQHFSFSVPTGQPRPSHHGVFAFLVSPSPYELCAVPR

[6] = inhibitors of intracellular T. cruzi replication, confirmation, NIH3T3 host cells, beta-gal luminescence (AID 2044); type: functional, cell-based;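 further: intracellular parasites grown in NIH/3T3 mouse fibroblasts as host cells; luminescent beta-galactosidase reporter signal from transgenic T. cruzi replicating inside host cells; inhibitors lower the luminescence signal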
[7] = cytotoxicity toward NIH3T3 fibroblasts, dose response, counter-screen, cell-based, ATP luminescence, mouse fibroblasts (AID 2010); type: functional;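 further: cells exposed to compound for about 90 hours before reading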
[8] = target: T2, Carboxy-terminal domain RNA polymerase II polypeptide A small phosphatase 1 (Homo sapiens, UniProt Q9GZU7); assay: inhibitors of CTDSP1, concentration-response testing, biochemical assay, absorbance-based, actives from ultra-high-throughput screening (AID 540297); type: functional
T2 sequence (Q9GZU7 whole entry): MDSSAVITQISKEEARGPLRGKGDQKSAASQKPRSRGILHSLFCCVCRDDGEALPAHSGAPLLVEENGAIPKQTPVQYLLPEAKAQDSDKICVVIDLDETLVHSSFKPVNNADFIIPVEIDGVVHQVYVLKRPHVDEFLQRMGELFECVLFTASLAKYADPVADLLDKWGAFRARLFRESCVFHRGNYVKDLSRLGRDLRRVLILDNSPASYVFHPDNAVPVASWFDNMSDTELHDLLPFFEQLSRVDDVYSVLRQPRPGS

Cytochrome P450 2C19 = Cytochrome P450 2C19 (Homo sapiens, UniProt P33261); assay: Cytochrome panel assay with activity outcomes. Panel member name: p450-cyp2c19 Compounds with AC50 equal or less than 10 uM are considered active; type: functional; settings: read-out: AC50
Sequence of Cytochrome P450 2C19 (P33261 whole entry): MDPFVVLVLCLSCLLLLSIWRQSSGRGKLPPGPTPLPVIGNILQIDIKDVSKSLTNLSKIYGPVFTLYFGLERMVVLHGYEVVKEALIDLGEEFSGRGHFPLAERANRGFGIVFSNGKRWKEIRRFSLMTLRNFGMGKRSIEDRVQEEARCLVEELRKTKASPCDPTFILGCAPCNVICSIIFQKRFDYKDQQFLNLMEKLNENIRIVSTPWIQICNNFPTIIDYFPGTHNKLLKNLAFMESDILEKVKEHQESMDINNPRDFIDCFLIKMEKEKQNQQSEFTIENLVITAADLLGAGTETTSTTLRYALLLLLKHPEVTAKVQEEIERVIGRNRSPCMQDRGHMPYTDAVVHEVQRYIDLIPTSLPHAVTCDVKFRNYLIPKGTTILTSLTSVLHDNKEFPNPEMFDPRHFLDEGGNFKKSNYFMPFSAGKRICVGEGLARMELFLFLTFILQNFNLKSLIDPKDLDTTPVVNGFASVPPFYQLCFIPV

Cytochrome P450 1A2 = target: T3, Cytochrome P450 1A2 (Homo sapiens, UniProt P05177);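 further: PubChem cytochrome P450 panel assay, CYP1A2 panel member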
T3 sequence (P05177 whole entry): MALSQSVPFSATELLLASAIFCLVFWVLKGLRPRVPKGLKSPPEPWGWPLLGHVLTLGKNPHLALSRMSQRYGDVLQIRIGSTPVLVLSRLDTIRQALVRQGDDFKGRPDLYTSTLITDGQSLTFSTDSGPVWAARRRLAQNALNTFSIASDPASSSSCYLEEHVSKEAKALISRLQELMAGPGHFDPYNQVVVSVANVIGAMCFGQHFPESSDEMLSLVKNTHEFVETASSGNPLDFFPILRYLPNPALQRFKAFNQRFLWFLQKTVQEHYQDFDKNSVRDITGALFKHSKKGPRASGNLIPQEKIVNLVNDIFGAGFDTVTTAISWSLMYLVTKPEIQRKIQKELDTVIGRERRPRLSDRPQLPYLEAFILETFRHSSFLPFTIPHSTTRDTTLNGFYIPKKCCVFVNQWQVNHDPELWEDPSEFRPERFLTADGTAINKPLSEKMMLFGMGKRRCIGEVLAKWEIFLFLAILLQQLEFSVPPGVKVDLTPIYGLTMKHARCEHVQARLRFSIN

[9] = HepG2 cell cytotoxicity, dose response, cytotoxicity control, plate reader, cherry-pick, antagonist series (AID 743416); type: functional, cell-based
[10] = LGR2 antagonists, dose response, cell-based, HEK293, CRE-luciferase reporter, cherry pick, set 2 (AID 743343); type: functional;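 further: transfected cells were stimulated with diluted bursicon conditioned medium after compound addition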
[11] = MC4R antagonists, dose response, counter-screen for LGR2 antagonist project, cell-based, plate reader, cherry pick (AID 743444); type: functional;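 further: transfected HEK 293 cells stimulated with alpha-MSH peptide; potency of inhibitors of the alpha-MSH evoked signal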
cells [12] = type: functional, cell-based
cells [13] = type: functional, cell-based; remark: listed apart in the source
INS1 = assay: beta cell apoptosis inhibitors, cytokine rescue, dose response, luminescence, retest (AID 449756); type: functional, cell-based; settings: Rattus norvegicus;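 further: cell death triggered by IL-1 beta plus TNF-alpha plus IFN-gamma mixture; protective hits raise ATP signal compared with cytokine alone wells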

O=C(Nc1cccc2ccccc12)OC1C=CS(=O)(=O)C1 (configuration not stated)
IC50 [1]: > 80 µM (inactive)

COc1ccc(-c2cc(C(=O)N(C)CC(=O)Nc3cccc(F)c3)c3ccccc3n2)cc1
CC50 [2]: 36.5 µM (active)

O=C(CN(Cc1ccccc1)C(=O)c1cc2c(s1)CCC2)NCc1cccs1
EC50 [3]: 5.32 µM (active)

COC(=O)c1nc(-c2ccccc2)oc1N(C)C
IC50 (Protein skinhead-1): > 100 µM (inactive)

O=C(COc1ccccc1)Nc1nnc(-c2ccc(Cl)s2)o1
EC50 [3]: 25.7 µM (active)

O=C(Oc1ccccc1)N1CCN(c2ccc(F)cc2)CC1
IC50 (Protein skinhead-1): 78.7 µM (inactive)

COc1ccc(-c2cc(-c3nnc(COC(=O)c4ccncc4)o3)c3ccccc3n2)cc1OC
IC50 (H9c2): 9.82 µM (active)

S=C(NCc1ccccc1)NCC1COc2ccccc2O1 (configuration not stated)
EC50 [3]: 3.17 µM (active)

C=CCNc1ncnc2sc(SC)nc12
IC50 (Protein skinhead-1): > 100 µM (inactive)

Cc1ccc(C)c(CSc2nc(O)c3c[nH]nc3n2)c1
IC50 [1]: > 80 µM (inactive)

O=C(Nc1nccs1)c1ccc(-c2ccccc2[N+](=O)[O-])o1
IC50 (Protein skinhead-1): > 100 µM (inactive)

CC#CC(=O)N1CCC(n2nccc2NC(=O)c2ccc3c(c2)OCO3)CC1
IC50 [1]: > 80 µM (inactive)

O=C(CN1C(=O)COc2ccccc21)Nc1ccc(F)cc1
EC50 [4]: 11.9 µM (active) | EC50 [5]: 13.8 µM (active) | EC50 (H4): 113 µM (active) | IC50 (Nonstructural protein 1): 3.73 µM (active)

c1ccc(CN2c3ccccc3-c3nc4ccccc4n3C2c2ccccn2)cc1 (configuration not stated)
EC50 [3]: 1.94 µM (active) | AC50 (Cytochrome P450 2D6): 15.8 µM (inconclusive)

Cc1cccc2sc(NC(=O)C3CCN(S(=O)(=O)c4cc([N+](=O)[O-])ccc4Cl)CC3)nc12
EC50 [6]: 0.63 µM (active) | EC50 [7]: > 30 µM (not active) | IC50 [8]: 3.44 µM (active)

Oc1ccccc1C=NNC(=S)Nc1ccc(F)cc1
IC50 (Nonstructural protein 1): 12.7 µM (active)

COc1cccc(/C=N/NC(=O)c2nc(-c3ccccc3)cc(-c3ccccc3)n2)c1
AC50 (Cytochrome P450 2C19): 0.794 µM (inconclusive) | IC50 (H9c2): > 79 µM (inactive) | AC50 (Cytochrome P450 1A2): 3.16 µM (inconclusive)

N#C[C@@H]1[C@H](c2ccc(C#Cc3cccc(F)c3)cc2)[C@@H](CO)N1C(=O)C1CCCC1
AC50 [9]: 27.1 µM (active) | AC50 [10]: 16.5 µM (active) | AC50 [11]: 8.4 µM (active)

CCN(CC)c1ccc(/C=N/NC(=O)c2cccc(S(=O)(=O)Nc3ccccc3OC)c2)c(O)c1
EC50 (cells [12]): 2.89 µM (active) | EC50 (cells [13]): 85.3 µM (active) | IC50 [1]: > 80 µM (inactive) | AC50 (INS1): 0.237 µM (active)
